The source of these data is patent publication US20230181430A1, “TOPICAL FORMULATIONS COMPRISING DUTASTERIDE FOR TREATING DERMATOLOGICAL DISORDERS INCLUDING MALE PATTERN BALDNESS” (XYON Health Inc., priority 2020, published 2023).

For series [1] the following is noted: in vivo; cited from earlier work.
The test system of a further series is serum DHT. The following applies: cited from earlier work; for reduction of serum DHT levels: oral administration / oral formulations.
Series [2] is described as follows: In vitro skin permeation assessment of dutasteride (Franz cell). The series is classed as in vitro ADME. The following applies: 1-24 hours, human epidermis. On the procedure:
To investigate the impact of the siliconic components in dutasteride-loaded formulations, in vitro tests were conducted to measure the permeation through and retention into skin epidermis of a 1% dutasteride-loaded silicone gel formulation made according to the process of Example 2. As a comparison, a gel spray of dutasteride without silicone (PEG-8 Dimethicone or Poly(methylsilsesquioxane)) was also prepared. An original Franz-type diffusion cell system was modified to accommodate widened vertical columns and removal of the bowl shape. The diffusion area was 0.636 cm^2 with a receiver capacity of approximately 3.0 mL. The receiver volume for each cell was individually calibrated.
Human epidermis samples were prepared according to standard protocols. The samples were obtained from abdominal skin of two 30-50 year old Eurasiatic donors. The samples were used as a membrane between the two chambers in the Franz cells. […]
Before being mounted on the Franz cell, each epidermal sheet was visually inspected to avoid any possible defects. Additionally, the electrical resistance of isolated epidermis was measured to ensure the integrity of the barrier membrane. […]
The prepared Franz cells were stirred continuously using a magnetic stir bar at a temperature of 37° C. […] After standing for 24 hours, the supernatant was centrifuged at 3000 rpm for 10 minutes at 23° C. and analyzed by HPLC. […]

For series [3] the following is noted: experimental; cited from earlier work.
For series [4] the following is noted: cited from earlier work.
For series [5] the following is noted: after oral administration; cited from earlier work.

Where “and” joins values, the source holds several entries; their conditions need not be identical. Equal entries are not always repeated. Where two headings read alike, the source gives them in different places.

As usually defined, the logP is the decadic logarithm of the partition coefficient of the neutral form, usually between octanol and water.

`C[C@]12C=CC(=O)N[C@@H]1CC[C@@H]1[C@@H]2CC[C@]2(C)[C@@H](C(=O)Nc3cc(C(F)(F)F)ccc3C(F)(F)F)CC[C@@H]12` [dutasteride, Dutasteride]: the volume of distribution in series [1] is 300 to 500 L. Further, the “suppression of DHT production” value in the series with serum DHT (after sustained oral administration) is reported as “up to 99%”. In addition, the “dutasteride in the receiver compartment” value in series [2] is given as “never detected”. The log partition coefficient (logP) in series [3] was 6.8. The plasma protein binding in series [4] is 99%.

With `CC(C)(C)NC(=O)[C@H]1CC[C@H]2[C@@H]3CC[C@H]4NC(=O)C=C[C@]4(C)[C@H]3CC[C@]12C` [finasteride, Finasteride], the volume of distribution in series [1] is 44 to 96 L. Moreover, the “reduction of serum DHT levels” value is 60 to 70% and 60-70% in the series on serum DHT; 65-70% in the series with serum DHT (listed as Finasteride). Further, the logP in series [3] is recorded as 3.03. In addition, in series [5], the “systemic clearance (CL)” value was 165 mL/min.
